For data set [1] the following is noted: cited from earlier work; for maximum plasma concentration by im route: in ng/mL.
For data set [2] the following is noted: cited from earlier work.
The conditions of data set [3]: rabbit, in vivo; cited from earlier work.
In data set [4] the test system is malaria. The conditions noted are these: cited from earlier work.
Data set [5] concerns malaria. To be noted: cited from earlier work. The source holds these as a separate data set.
For data set [6] the following is noted: dog, in vivo; cited from earlier work.
For data set [7] the following is noted: cited from earlier work. The source holds these as a separate data set.
For data set [8] the following is noted: aqueous solution at pH 7-8; cited from earlier work.
Data set [9] relates to P. falcipurum. To be noted: rectal suppository; cited from earlier work.
The test system of data set [10] is multi-drug resistant P. yoelii nigeriensis. Briefly: Blood schizontocidal activity in Swiss mice by oral route. The conditions noted are these: oral in oil, 30 mg/kg × 5, mice 25 ± 1 g. Type of data set: in vivo, Plasmodium yoelii nigeriensis. The method, then: Test Parasite: Multi-drug resistant Plasmodium yoeli nigerienes (Rodent malaria strian). The P. yoeli nigerienses is a multi-drug resistant strain which is resistant to high oral doses of chloroquine (128 mg/kg×4), amodiaquine (128 mg/kg×4), meperaine (128 mg/kg×4), mefloquine (128 mg/kg×4), quinine (400 mg/kg×4) and halofantrine (32 mg/kg×4). […].

The conditions of data set [11]: oral tablets, 60 mg dose, cited from earlier work.
The conditions of data set [12]: oral artesunate; 95/Cl 387-9410, range 79-1394; cited from earlier work.
Data set [13] has as its system multi-drug resistant P. yoelii nigeriensis. The experiment in a line: Blood schizontocidal activity in Swiss mice by rectal route. Type of data set: in vivo, Plasmodium yoelii nigeriensis. To be noted: for Cure-rate Day 30 (%) / Parasitaemia % Day 5 / Parasitaemia % Day 7: in oil; for Parasitaemia % Day 5 / Parasitaemia % Day 7: 8 mice. The method, then:
Test Parasite: Multi-drug resistant Plasmodium yoeli nigerienes (Rodent malaria strian). The P. yoeli nigerienses is a multi-drug resistant strain which is resistant to high oral doses of chloroquine (128 mg/kg×4), amodiaquine (128 mg/kg×4), meperaine (128 mg/kg×4), mefloquine (128 mg/kg×4), quinine (400 mg/kg×4) and halofantrine (32 mg/kg×4). […]. […] For higher doses (15 and 20 mg/kg) the drug was given in divided doses by rectal route. The tail blood smears of the mice were examined periodically after Giemsa staining upto 30 days post-infections.
Drug is dissolved in sterile ground nut oil for adminisitration.

The subject of data set [14] is multi-drug resistant strain of P. yoelii nigeriensis. The experiment in a line: Blood schizontocidal activity in Swiss mice and baby mice by intramuscular route. The data set is classed as in vivo, Plasmodium yoelii nigeriensis. To be noted: day 30. Here is the method: Test Parasite: Multi-drug resistant Plasmodium yoeli nigerienes (Rodent malaria strian). The P. yoeli nigerienses is a multi-drug resistant strain which is resistant to high oral doses of chloroquine (128 mg/kg×4), amodiaquine (128 mg/kg×4), meperaine (128 mg/kg×4), mefloquine (128 mg/kg×4), quinine (400 mg/kg×4) and halofantrine (32 mg/kg×4). […]. […] The tail blood smears of the mice were examined periodically after Giemsa staining upto 30 days post-infection.
Drug treatment was started on day 0 (ie day of infection). Mice showing negative blood slide upto day 30 were considered as cured.

A short description of data set [15]: Safety in healthy mice. Type of data set: in vivo. The conditions noted are these: 30 mg/kg DHA × 5, 20 ± 1 g mice.
For data set [16] the following is noted: cited from earlier work. This is another data set of the same source.
The mark [17] stands for this setting: 5 mg/kg × 7, Swiss mice 20 ± 1 g.
Setting [18] is: 20 mg/kg × 7, Swiss mice 20 ± 1 g.
Where [19] appears, read: following oral artesunate administration.

Several values for one entry are separate records, joined by “and”; a condition that tells them apart may be missing. Equal entries are not always repeated. Where two headings read alike, the source gives them in different places.

For `CCO[C@H]1O[C@@H]2O[C@@]3(C)CC[C@H]4[C@H](C)CC[C@@H]([C@H]1C)[C@@]24OO3` [arteether], the “maximum plasma concentration by im route” value in [1] (rats) was 160±12.4. In addition, in data set [1] (rats, single IM dose), the Distribution half life is 20.4 ± 4.2 min, the Mean absorption time is 0.25 ± 0.06 h, the “Time of maximum plasma Concentration” value is reported as 41.4 ± 14.7 min and the “maximum plasma concentration” value is 160.7 ± 12.4 ng/mL. For the same compound, the “Absorption 0-8 h” value in data set [1] (rats, single IM dose, listed as AE) is 34.0±9.6%. For the same compound, in data set [2] (oral, rats), the Elimination half life is 107 ± 28.2 min, the “area under plasma concentration time curve” value was 298±68 ngh ml^−1 and the maximum plasma concentration was 324 ± 10 ng/mL.
On to `C[C@H]1[C@H](OC(=O)CCC(=O)O)O[C@@H]2O[C@@]3(C)CC[C@H]4[C@H](C)CC[C@@H]1[C@@]24OO3` [artesunate], for which the elimination half-life in data set [3] is 2 to 4 min. In data set [1] (rat, in vivo, im), the Distribution half life is 9 ± 3.6 min and the Elimination half life was 32.4 ± 8.4 min. Moreover, in data set [1] (rat, in vivo), the “Time of maximum plasma Concentration” value is given as 15.0 ± 4.1 min. In data set [2] (rat, in vivo, po), the Elimination half life was 80.4 ± 1560 min, the “area under plasma concentration time curve” value is given as 217±34 ngh ml^−1 and the maximum plasma concentration is 208 ± 25 ng/mL. The “times more potent than artemisinin” value in [4] is listed as 3.2 times. Moreover, the cure rate in [5] (upto 750 mg) is 70-90%. In addition, the elimination half-life in data set [6] is 27 min. In addition, in data set [7] (in vivo, po), the maximum plasma level is 0.12 ± 0.11 µg/mL.
Regarding `C[C@H]1[C@H](OC(=O)CCC(=O)[O-])O[C@@H]2O[C@@]3(C)CC[C@H]4[C@H](C)CC[C@@H]1[C@@]24OO3.[Na+]` [sodium artesunate], the “time of hydrolysis to DHA” value in data set [8] is listed as at most 1 h.
Take `C[C@@H]1CC[C@H]2[C@@H](C)C(=O)O[C@@H]3O[C@@]4(C)CC[C@@H]1[C@]32OO4` [artemisinin]: the recovery from coma in data set [9] is on record as 24 (18-30) h. In addition, the cure rate in [5] (high doses upto 5.0 g) is 55%.
As to `CO[C@H]1O[C@@H]2O[C@@]3(C)CC[C@H]4[C@H](C)CC[C@@H]([C@H]1C)[C@@]24OO3` [artemether], the “maximum plasma concentration by im route” value in [1] (rats) is on record as 692±234. Moreover, in [1] (rats, single IM dose), the “Absorption 0-8 h” value was 54.2±25.9% and 54.3%; the Area under plasma concentration was 1010 ng·h/mL; the Distribution half life was 13.8 min; the Elimination half life is 107 ± 48 min. In data set [1] (rats, single IM dose), the Mean absorption time was 0.14 h, the “Time of maximum plasma Concentration” value is 28.8 min and the “maximum plasma concentration” value is 692 ng/mL. In [2] (oral, rats), the Elimination half life was 122 ± 10.8 min, the “area under plasma concentration time curve” value is listed as 306±52 ngh ml^−1 and the maximum plasma concentration was 381 ± 113 ng/mL.
`C[C@H]1[C@@H](O)O[C@@H]2O[C@@]3(C)CC[C@H]4[C@H](C)CC[C@@H]1[C@@]24OO3` [DHA, Dihydroartemisinin]: the “Cure rate (%) Day 30” value in data set [10] is 100%. Moreover, the “peak plasma levels of dihydroartemisinin” value in data set [11] (four subjects) is 0.26 to 0.71 µg/mL. Besides, in data set [11] (six cases), the tolerability result is listed as “well tolerated in 2 subjects while 4 subjects experienced mild headache, nausea or vomiting”. Besides, in [11], the “complete excretion by” value was at most 6 h and the elimination half-life was 42.6 to 87 min. Moreover, the “maximum plasma concentration by im route” value in [1] (rats) is 1579±443. In [1] (rats, single IM dose), the “Absorption 0-8 h” value is 85.4±12.1% and 85.4%; the Area under plasma concentration was 2720 ng·h/mL; the Elimination half life is 266 ± 16.2 min; the Mean absorption time is recorded as 0.21 h. Further, in [1] (rats, single IM dose), the “Time of maximum plasma Concentration” value is listed as 17.5 min and the “maximum plasma concentration” value was 1579 ng/mL. The “peak plasma concentration of DHA” value in [12] is listed as 664 ng of DHA/ml. Also, in [13] (5 mg/kg × 7, of 8 mice), the “number of mice negative (-ve) Day 5” value is given as “(8) 4-ve” and the “number of mice negative (-ve) Day 7” value is “(8) 4-ve”. Besides, in data set [13] (setting [17]), the “Cure-rate Day 30 (%)” value came out at 25%, the “Parasitaemia % Day 5” value was 0.83 ± 1.31% and the “Parasitaemia % Day 7” value is reported as 1.12 ± 1.55%. In addition, in [13] (setting [18]), the “Cure-rate Day 30 (%)” value was 87%, the “Parasitaemia % Day 5” value was 0.0% and the “Parasitaemia % Day 7” value is given as 0.0%. The “Cure rate (%)” value in data set [14] (Expt. I, IM in oil, 5 mg/kg × 5, mice 20 ± 1 g) is recorded as 100% (8/8). In addition, in data set [14] (Expt. II, im in oil, 5 mg/kg × 5, mice 20 ± 1 g), the “Cure rate (%)” value was 100% (8/8). The “Cure rate (%)” value in data set [14] (Expt. II, im in oil, 10 mg/kg × 5, mice 20 ± 1 g) is on record as 100% (8/8). Besides, the “Cure rate (%)” value in [14] (Expt. III, im in oil, 5 mg/kg × 5, baby mice 12 ± 1 g) is reported as 100% (9/9). The “Safety in Healthy mice” value in data set [15] was “Safe 8/8”. Moreover, in [2] (oral, rats), the Elimination half life was 296 ± 43.8 min and the “area under plasma concentration time curve” value was 9615±56 ngh ml^−1. In addition, in data set [16] (im route), the “DHA activity AUC” value is listed as 3445 n Mlo l^−1 h and the “duration of activity due to DHA” value was “over 30 h”. The “duration of effective level” value in data set [16] (oral dose) is reported as at most 10 h. Besides, in [7] (setting [19]), the “DHA level compared to that of artesunate” value is listed as 5 fold and the maximum plasma level is 0.57 ± 0.18 µg/mL.

The record behind these values is US6362219B1 (Council of Scientific and Industrial Research, priority 1999, dated 2002).
